One may read the IC50 as the concentration that gives 50% inhibition.

The test system of one data set is Hs578T 3D MAME cultures. The data set is described as follows: Cell viability (Live/Dead) assay, Hs578T 3D MAME cultures. In kind it is cell-based. The conditions noted are these: in the dark or the light, 4 days. The procedure:
Three-dimensional cultures of TNBC cells were established, grown and treated with compound 2 as described above. After 4 days, a cell viability assay was performed to assess the cytotoxic effects of compound 2. The assay has two components: Calcein AM that fluoresces green when cleaved by intracellular esterases thereby labeling live cells and Ethidium Homodimer-1 that fluoresces red when incorporated in the DNA of dead cells. A solution of 4 μM Ethidium Homodimer-1 and 2 μM Calcein AM was prepared in sterile PBS. Cultures were incubated for 30 minutes at 37°C, washed once with warm PBS and replenished with warm MEGM media for live cell imaging. The samples were then imaged at 10X magnification using a Zeiss 510 META confocal microscope. Tiled 16-panel images and z-stacks through the depth of structures were captured. The images were processed to show top views using Volocity software.

In data set [1] the target is T1, CTSB purified from human liver (Homo sapiens, UniProt P07858).
T1 construct: CTSB purified from human liver was purchased from Athens Research & Technology; purchased Athens Research & Technology (Athens, GA, USA); host or cells: human liver (tissue-purified)
Briefly: Cathepsin B activity assay with purified enzyme (Z-Arg-Arg-AMC). The conditions noted are these: for IC50: CTSB 10 nM, substrate 150 μM. The format is biochemical. The procedure: CTSB purified from human liver was purchased from Athens Research & Technology (Athens, GA, USA). The enzyme activity was determined from kinetic measurements performed by fluorimetric detection of the hydrolysis product AMC at 37°C for 30 min at one-minute intervals using a Tecan SpectraFluor Plus plate-reader. The excitation and emission wavelengths were 360 and 485 nm, respectively. The fluorescent substrate Z-Arg-Arg-AMC (Bachem, Torrance, CA, USA) was used at a final concentration of 150 μM.
The enzyme was activated for 15 minutes with activator buffer (100 μl) containing 5 mM EDTA, 10 mM DTT (pH 5.2) at 37°C. The sample (1 μl) was added and the reaction mixtures were conducted during 45 min under dark (no irradiation) and light (irradiation at 250 W, 395–750 nm) conditions with a tungsten halogen lamp and H2O filter on separate plates. For the experiments under dark conditions, room lights were off and in addition the plate was covered with aluminum foil (light protection); the other plate was exposed to visible light for the same time period. The irradiation wavelength was selected by placing a 395 long-pass filter between the lamp and the sample, along with a 10 cm water cell to absorb infrared light. After photolysis, the reaction was initiated by addition of 200 μl of assay buffer (0.6 mM CaCl2, 0.6 mM MgCl2, 25 mM piperazin-N-N‘-bis[2-ethanosulfonic acid] (disodium salt)), pH 7.3 containing 150 μM Z-Arg-Arg-AMC substrate solution. Enzyme concentration was 10 nM. The experiments were carried out in triplicate in 96-well flat bottom black plates at pH 6.0. Enzyme activities are expressed as a percentage, with 100% equal to activity in the absence of inhibitor. IC50 values were determined by plotting percent activity vs. log (inhibitor concentration).

Like-named read-outs stand apart in the source and are kept apart here.

Take `Cc1cccc(CC(NC(=O)c2ccc(Cl)c(Cl)c2)C(=O)NCC#N)c1.Cc1cccc(CC(NC(=O)c2ccc(Cl)c(Cl)c2)C(=O)NCC#N)c1.F[B-](F)(F)F.F[B-](F)(F)F.[Ru+2].c1ccc(-c2ccccn2)nc1.c1ccc(-c2ccccn2)nc1` (mixture of isomers) [compound 2, Δ- and Λ-cis [Ru(bpy)2(1)2](BF4)2]: the “toxicity by cell viability assay” value in the data set on Hs578T 3D MAME cultures is listed as “did not observe any toxicity”. Besides, the concentration for half-maximal inhibition (IC50) in data set [1] (dark (no irradiation) 45 min, read-out: IC50 (dark)) was 3400 nM; in data set [1] (light λirr = 395–750 nm, 45 min, 250 W, read-out: IC50 (light)), 280 nM. The “dark/light IC50 ratio” value in data set [1] (purified CTSB) is given as 12.
